Our source for the POC and IC50 values is US10125134B2 (Mirati Therapeutics, Inc., priority 2016, dated 2018).

pIC50: −log10 of the molar value. Read-outs that look alike come from different tables or passages of the source.

Assay [1] deals with KRas G12C (Homo sapiens, UniProt P01116, C118S/C51S/C80L/G12C). The assay can be described thus: KRas G12C Modification Assay (LCMS detection of covalent adduct). In kind it is binding. As to conditions: normalized percent of control; tested at 5 μM concentration for 3 hours. The method in brief: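 Covalent modification was read by reverse-phase LC/MS of intact protein after compound exposure, each reaction stopped at its time point with 25 mM acetic acid. Unmodified-protein signal, taken as percent of total, was normalised to untreated protein and reported as POC.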

In assay [2] the test system is NCI-H358 cells (express KRas G12C), Phospho-ERK. The assay can be described thus: Cellular inhibition of KRas G12C: Phospho-ERK in NCI-H358 cells. In kind it is cell-based. As to conditions: Homo sapiens, pERK(Thr202/Tyr204) normalized with GAPDH, NCI-H358 cells, 3 hours, read-out: IC50. In short, it runs like this:
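IC50 derived by 4-parameter fit of GAPDH-normalized pERK(Thr202/Tyr204) signal, as percent of DMSO control. Signal came from in-cell immunodetection with infrared secondaries after 3 h compound exposure of KRas G12C NCI-H358 cells at 0.5% DMSO.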

Consider `C=CC(=O)N1CCN(c2nc(OCCCN3CCOCC3)nc3c2CCN(c2cc(O)ccc2OC(F)(F)F)C3)CC1` [Example 90, 1-(4-(7-(5-hydroxy-2-(trifluoromethoxy)phenyl)-2-(3-morpholinopropoxy)-5,6,7,8-tetrahydropyrido[3,4-d]pyrimidin-4-yl)piperazin-1-yl)prop-2-en-1-one], for which the POC entry in assay [1] is recorded as “C (“C”>50% POC)”. Further, the negative logarithm of the IC50 (pIC50) in assay [2] was 6.00 to 10.00.

As to `C=CC(=O)N1CCN(c2nc(O[C@H](C)CN(C)C)nc3c2CCN(c2cc(O)cc(OC(F)(F)F)c2)C3)CC1` [Example 91, (R)-1-(4-(2-((1-(dimethylamino)propan-2-yl)oxy)-7-(3-hydroxy-5-(trifluoromethoxy)phenyl)-5,6,7,8-tetrahydropyrido[3,4-d]pyrimidin-4-yl)piperazin-1-yl)prop-2-en-1-one], the POC entry in assay [1] is on record as “A (“A”≤25% POC)”. In assay [2], the pIC50 is under 6.00.

For the compound `C=CC(=O)N1CCN(c2nc(OCCN3CCC(C)CC3)nc3c2CCN(c2cc(O)cc4ccccc24)C3)CC1` [Example 92, 1-(4-(7-(3-hydroxynaphthalen-1-yl)-2-(2-(4-methylpiperidin-1-yl)ethoxy)-5,6,7,8-tetrahydropyrido[3,4-d]pyrimidin-4-yl)piperazin-1-yl)prop-2-en-1-one], the POC entry in assay [1] was “C (“C”>50% POC)”. In addition, in assay [2] (NCI-H358, 3 h), the pIC50 was 6.00 to 10.00.

For the compound `C=CC(=O)N1CCN(c2nc(OC(C)CCN3CCOCC3)nc3c2CCN(c2cc(O)cc4ccccc24)C3)CC1` (centres unmarked) [Example 93, 1-(4-(7-(3-hydroxynaphthalen-1-yl)-2-((4-morpholinobutan-2-yl)oxy)-5,6,7,8-tetrahydropyrido[3,4-d]pyrimidin-4-yl)piperazin-1-yl)prop-2-en-1-one], the POC entry in assay [1] is “C (“C”>50% POC)”. Also, in assay [2] (NCI-H358, 3 h), the pIC50 is under 6.00.

For `C=CC(=O)N1CCN(c2nc(O[C@H](C)CN(C)C)nc3c2CCN(c2cc(O)ccc2OC)C3)CC1` [Example 94, (R)-1-(4-(2-((1-(dimethylamino)propan-2-yl)oxy)-7-(5-hydroxy-2-methoxyphenyl)-5,6,7,8-tetrahydropyrido[3,4-d]pyrimidin-4-yl)piperazin-1-yl)prop-2-en-1-one], the POC entry in assay [1] is recorded as “A (“A”≤25% POC)”. Besides, in assay [2], the pIC50 was under 6.00.

Consider `C=CC(=O)N1CCN(c2nc(O[C@H](C)CN(C)C)nc3c2CCN(c2c(C)cccc2O)C3)CC1` [Example 95, (R)-1-(4-(2-((1-(dimethylamino)propan-2-yl)oxy)-7-(2-hydroxy-6-methylphenyl)-5,6,7,8-tetrahydropyrido[3,4-d]pyrimidin-4-yl)piperazin-1-yl)prop-2-en-1-one], for which the POC result in assay [1] is “A (“A”≤25% POC)”. Besides, the pIC50 in assay [2] is under 6.00.

As to `C=CC(=O)N1CCN(c2nc(OCCCN3CCOCC3)nc3c2CCN(c2cc(O)ccc2OC(C)C)C3)CC1` [Example 96, 1-(4-(7-(5-hydroxy-2-isopropoxyphenyl)-2-(3-morpholinopropoxy)-5,6,7,8-tetrahydropyrido[3,4-d]pyrimidin-4-yl)piperazin-1-yl)prop-2-en-1-one], the POC result in assay [1] is given as “A (“A”≤25% POC)”. Moreover, in assay [2], the pIC50 was under 6.00.

Take `C=CC(=O)N1CCN(c2nc(OCCN3CCCC[C@H]3C)nc3c2CCN(c2cc(O)cc4ccccc24)C3)CC1` [Example 97, (R)-1-(4-(7-(3-hydroxynaphthalen-1-yl)-2-(2-(2-methylpiperidin-1-yl)ethoxy)-5,6,7,8-tetrahydropyrido[3,4-d]pyrimidin-4-yl)piperazin-1-yl)prop-2-en-1-one]: the POC entry in assay [1] is recorded as “C (“C”>50% POC)”. Further, the pIC50 in assay [2] (NCI-H358, 3 h) is 6.00 to 10.00.

For the compound `C=CC(=O)N1CCN(c2nc(OCCN3CCC[C@H](OC)C3)nc3c2CCN(c2cc(O)cc4ccccc24)C3)CC1` [Example 98, (S)-1-(4-(7-(3-hydroxynaphthalen-1-yl)-2-(2-(3-methoxypiperidin-1-yl)ethoxy)-5,6,7,8-tetrahydropyrido[3,4-d]pyrimidin-4-yl)piperazin-1-yl)prop-2-en-1-one], the POC result in assay [1] is on record as “C (“C”>50% POC)”. For the same compound, the pIC50 in assay [2] (NCI-H358, 3 h) is under 6.00.

Regarding `C=CC(=O)N1CCN(c2nc(OCCN3CCC[C@@H](OC)C3)nc3c2CCN(c2cc(O)cc4ccccc24)C3)CC1` [Example 99, (R)-1-(4-(7-(3-hydroxynaphthalen-1-yl)-2-(2-(3-methoxypiperidin-1-yl)ethoxy)-5,6,7,8-tetrahydropyrido[3,4-d]pyrimidin-4-yl)piperazin-1-yl)prop-2-en-1-one], the POC result in assay [1] is listed as “C (“C”>50% POC)”. The pIC50 in assay [2] (NCI-H358, 3 h) was under 6.00.

On to `C=CC(=O)N1CCN(c2nc(OC3CCN(C4CC4)CC3)nc3c2CCN(c2cc(O)cc4ccccc24)C3)CC1` [Example 100, 1-(4-(2-((1-cyclopropylpiperidin-4-yl)oxy)-7-(3-hydroxynaphthalen-1-yl)-5,6,7,8-tetrahydropyrido[3,4-d]pyrimidin-4-yl)piperazin-1-yl)prop-2-en-1-one], for which the POC result in assay [1] is given as “C (“C”>50% POC)”. In assay [2] (NCI-H358, 3 h), the negative logarithm of the IC50 (pIC50) is under 6.00.

`C=CC(=O)N1CCN(c2nc(OCCCN3CCCOCC3)nc3c2CCN(c2cc(O)cc4ccccc24)C3)CC1` [Example 101, 1-(4-(2-(3-(1,4-oxazepan-4-yl)propoxy)-7-(3-hydroxynaphthalen-1-yl)-5,6,7,8-tetrahydropyrido[3,4-d]pyrimidin-4-yl)piperazin-1-yl)prop-2-en-1-one]: the POC result in assay [1] is on record as “C (“C”>50% POC)”. Besides, the pIC50 in assay [2] (NCI-H358, 3 h) is 6.00 to 10.00.

Turning to `C=CC(=O)N1CCN(c2nc(OCCN(CC)CC)nc3c2CCN(c2cc(O)cc4ccccc24)C3)CC1` [Example 102], the POC result in assay [1] is reported as “C (“C”>50% POC)”. Also, the pIC50 in assay [2] (NCI-H358, 3 h) is 6.00 to 10.00.

Regarding `C=CC(=O)N1CCN(c2nc(OCC3CCN(CCOC)C3)nc3c2CCN(c2cc(O)cc4ccccc24)C3)CC1` (centres unmarked) [Example 103, 1-(4-(7-(3-hydroxynaphthalen-1-yl)-2-((1-(2-methoxyethyl)pyrrolidin-3-yl)methoxy)-5,6,7,8-tetrahydropyrido[3,4-d]pyrimidin-4-yl)piperazin-1-yl)prop-2-en-1-one], the POC entry in assay [1] was “C (“C”>50% POC)”. Further, the pIC50 in assay [2] (NCI-H358, 3 h) was 6.00 to 10.00.

`C=CC(=O)N1CCN(c2nc(OCCCN3C[C@@H]4C[C@H]3CO4)nc3c2CCN(c2cc(O)cc4ccccc24)C3)CC1` [Example 104, 1-(4-(2-(3-((1 S,4S)-2-oxa-5-azabicyclo[2.2.1]heptan-5-yl)propoxy)-7-(3-hydroxynaphthalen-1-yl)-5,6,7,8-tetrahydropyrido[3,4-d]pyrimidin-4-yl)piperazin-1-yl)prop-2-en-1-one]: the POC entry in assay [1] is “C (“C”>50% POC)”. Moreover, in assay [2] (NCI-H358, 3 h), the pIC50 was 6.00 to 10.00.

As for `C=CC(=O)N1CCN(c2nc(OCCCN3CCOCC3)nc3c2CCN(c2cc(O)ccc2C)C3)CC1` [Example 105, 1-(4-(7-(5-hydroxy-2-methylphenyl)-2-(3-morpholinopropoxy)-5,6,7,8-tetrahydropyrido[3,4-d]pyrimidin-4-yl)piperazin-1-yl)prop-2-en-1-one], in assay [1], the POC result was “B (“B”>25% POC−≤50% POC)”. Moreover, the pIC50 in assay [2] is under 6.00.

Regarding `C=CC(=O)N1CCN(c2nc(OCCCN3CCOCC3)nc3c2CCN(c2ccc(O)cc2OC(F)(F)F)C3)CC1` [Example 106, 1-(4-(7-(4-hydroxy-2-(trifluoromethoxy)phenyl)-2-(3-morpholinopropoxy)-5,6,7,8-tetrahydropyrido[3,4-d]pyrimidin-4-yl)piperazin-1-yl)prop-2-en-1-one], the POC entry in assay [1] is on record as “A (“A”≤25% POC)”. For the same compound, in assay [2], the pIC50 was under 6.00.

As to `C=CC(=O)N1CCN(c2nc(OCCN(C)CCOC)nc3c2CCN(c2cc(O)cc4ccccc24)C3)CC1` [Example 107, 1-(4-(7-(3-hydroxynaphthalen-1-yl)-2-(2-((2-methoxyethyl)(methyl)amino)ethoxy)-5,6,7,8-tetrahydropyrido[3,4-d]pyrimidin-4-yl)piperazin-1-yl)prop-2-en-1-one], in assay [1], the POC result is “C (“C”>50% POC)”. Besides, the pIC50 in assay [2] (NCI-H358, 3 h) was under 6.00.

In the case of `C=CC(=O)N1CCN(c2nc(OCCN3CCC(OC)CC3)nc3c2CCN(c2cc(O)cc4ccccc24)C3)CC1` [Example 108, 1-(4-(7-(3-hydroxynaphthalen-1-yl)-2-(2-(4-methoxypiperidin-1-yl)ethoxy)-5,6,7,8-tetrahydropyrido[3,4-d]pyrimidin-4-yl)piperazin-1-yl)prop-2-en-1-one], in assay [1], the POC entry is on record as “C (“C”>50% POC)”. Further, in assay [2] (NCI-H358, 3 h), the pIC50 is 6.00 to 10.00.

Take `C=CC(=O)N1CCN(c2nc(OCCN3CCC(F)(F)CC3)nc3c2CCN(c2cc(O)cc4ccccc24)C3)CC1` [Example 109, 1-(4-(2-(2-(4,4-difluoropiperidin-1-yl)ethoxy)-7-(3-hydroxynaphthalen-1-yl)-5,6,7,8-tetrahydropyrido[3,4-d]pyrimidin-4-yl)piperazin-1-yl)prop-2-en-1-one]: in assay [1], the POC entry is “C (“C”>50% POC)”. Moreover, the pIC50 in assay [2] (NCI-H358, 3 h) was under 6.00.

Consider `C=CC(=O)N1CCN(c2nc(OC[C@@H]3CCN(C)C3)nc3c2CCN(c2cc(O)cc4ccccc24)C3)CC1` [Example 110, (R)-1-(4-(7-(3-hydroxynaphthalen-1-yl)-2-((1-methylpyrrolidin-3-yl)methoxy)-5,6,7,8-tetrahydropyrido[3,4-d]pyrimidin-4-yl)piperazin-1-yl)prop-2-en-1-one], for which the POC result in assay [1] is “C (“C”>50% POC)”. Further, in assay [2] (NCI-H358, 3 h), the pIC50 was 6.00 to 10.00.

Regarding `C=CC(=O)N1CCN(c2nc(OCCN3CCC[C@H](F)C3)nc3c2CCN(c2cc(O)cc4ccccc24)C3)CC1` [Example 111, (S)-1-(4-(2-(2-(3-fluoropiperidin-1-yl)ethoxy)-7-(3-hydroxynaphthalen-1-yl)-5,6,7,8-tetrahydropyrido[3,4-d]pyrimidin-4-yl)piperazin-1-yl)prop-2-en-1-one], the POC entry in assay [1] is on record as “C (“C”>50% POC)”. Besides, the pIC50 in assay [2] (NCI-H358, 3 h) was 6.00 to 10.00.

A word on the pIC50: it is −log10 of the IC50, conventionally taken in molar units.
